Six molecules from ChEMBL document CHEMBL1129846, “Synthesis and antiproliferative activity of 2-O-allyl-1--D-arabinofuranosyl-uracil, -cytosine and -adenine” (Bioorg Med Chem Lett, 1997) can be followed below.

pIC50: −log10 of the molar value. Some results are limits rather than exact numbers.

Format in all cases: functional, cell-based
Assay [1] in a line: Compound was evaluated for its antiproliferative activity on human T-lymphocyte Molt4/C8 cells. The settings on record: MOLT-4.
A short description of assay [2]: Compound was evaluated for its antiproliferative activity on human T-lymphocyte CEM cells. The settings on record: CCRF-CEM.
Assay [3] concerns L1210. The assay can be described thus: Tested for its antiproliferative activity on murine leukemia L1210 cells. The settings on record: Mus musculus.

By pIC50 is commonly meant the negative decadic logarithm of the IC50, by convention in mol/L. Regarding `C=CCO[C@H]1[C@H](O)[C@@H](CO)O[C@H]1n1ccc(=O)[nH]c1=O`, the pIC50 in assay [1], in assay [2] and in assay [3] was less than 3.30 in each case.

With `Nc1ccn([C@@H]2O[C@H](CO)[C@@H](O)[C@@H]2O)c(=O)n1` [CYTARABINE], the negative logarithm of the IC50 (pIC50) was 7.52 in assay [1], 8.43 in assay [2] and 7.51 in assay [3].

For `Nc1ncnc2c1ncn2[C@@H]1O[C@H](CO)[C@@H](O)[C@@H]1O` [VIDARABINE], the results for the pIC50 in assay [1], in assay [2] and in assay [3] were 4.92, 4.61 and 4.85, respectively.

On to `C=CCO[C@H]1[C@H](O)[C@@H](CO)O[C@H]1n1cnc2c(N)ncnc21`, for which the pIC50 is 4.06 in assay [1], 4.14 in assay [2] and 3.60 in assay [3].

With `C=CCO[C@H]1[C@H](O)[C@@H](CO)O[C@H]1n1ccc(N)nc1=O`, the pIC50 was 3.23 in assay [1], 3.90 in assay [2] and 3.90 in assay [3].

`O=c1ccn([C@@H]2O[C@H](CO)[C@@H](O)[C@H]2O)c(=O)[nH]1` [URIDINE]: the pIC50 in assay [1], in assay [2] and in assay [3] was less than 3.70 in each case.
